Assay results reported in PMC7179119, “A New Positron Emission Tomography Probe for Orexin Receptors Neuroimaging” (Molecules, 2020).
Like-named read-outs stand apart in the source and are kept apart here.

Key:
Test in all cases: PDSP off-target radioligand binding assay
Alpha1B = target: T1, Alpha1B (Homo sapiens, UniProt P35368)
T1 construct: NIMH PDSP
T1 sequence (P35368 1-520): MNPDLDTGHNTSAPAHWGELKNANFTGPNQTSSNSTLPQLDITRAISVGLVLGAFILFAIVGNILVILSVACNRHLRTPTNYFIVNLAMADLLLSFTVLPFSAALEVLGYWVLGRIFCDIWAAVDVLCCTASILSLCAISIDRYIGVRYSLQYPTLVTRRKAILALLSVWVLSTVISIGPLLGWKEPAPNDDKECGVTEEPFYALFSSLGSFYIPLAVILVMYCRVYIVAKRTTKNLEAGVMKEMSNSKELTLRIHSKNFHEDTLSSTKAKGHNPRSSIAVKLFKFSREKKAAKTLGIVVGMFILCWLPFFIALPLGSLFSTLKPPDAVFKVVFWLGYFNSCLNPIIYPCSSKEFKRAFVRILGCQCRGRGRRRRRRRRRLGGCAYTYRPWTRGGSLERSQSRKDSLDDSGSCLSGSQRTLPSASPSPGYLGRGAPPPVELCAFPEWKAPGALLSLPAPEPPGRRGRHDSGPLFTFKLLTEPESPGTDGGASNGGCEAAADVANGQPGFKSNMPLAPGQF
In short: (§1)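 Single-point screen, 10 µM test compound, n=4; hot ligand ~Kd; NSB with 10 µM reference; 90 min RT, dark; PEI-soaked filter harvest, cold washes, scintillation count; % inhibition.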

H4 = H4 (Homo sapiens, UniProt Q9H3N8)
In short: as §1

D4 = target: T2, D4 (Homo sapiens, UniProt P21917)
T2 construct: NIMH PDSP
T2 sequence (P21917 1-419): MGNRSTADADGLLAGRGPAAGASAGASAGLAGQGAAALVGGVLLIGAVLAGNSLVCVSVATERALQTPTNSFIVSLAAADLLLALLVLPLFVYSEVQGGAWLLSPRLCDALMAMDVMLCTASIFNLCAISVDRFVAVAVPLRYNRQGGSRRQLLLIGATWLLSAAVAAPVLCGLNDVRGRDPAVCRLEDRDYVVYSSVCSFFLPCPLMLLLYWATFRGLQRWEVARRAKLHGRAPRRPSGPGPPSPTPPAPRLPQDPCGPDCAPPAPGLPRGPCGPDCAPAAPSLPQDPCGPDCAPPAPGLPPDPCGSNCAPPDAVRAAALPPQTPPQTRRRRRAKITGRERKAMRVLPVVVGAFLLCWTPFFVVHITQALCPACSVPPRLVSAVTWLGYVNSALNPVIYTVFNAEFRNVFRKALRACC
In short: as §1

5-HT2A = target: T3, 5-HT2A (Homo sapiens, UniProt P28223)
T3 construct: NIMH PDSP
In short: as §1

5-HT1A = target: T4, 5-HT1A (Homo sapiens, UniProt P08908)
T4 construct: NIMH PDSP
T4 sequence (P08908 1-422): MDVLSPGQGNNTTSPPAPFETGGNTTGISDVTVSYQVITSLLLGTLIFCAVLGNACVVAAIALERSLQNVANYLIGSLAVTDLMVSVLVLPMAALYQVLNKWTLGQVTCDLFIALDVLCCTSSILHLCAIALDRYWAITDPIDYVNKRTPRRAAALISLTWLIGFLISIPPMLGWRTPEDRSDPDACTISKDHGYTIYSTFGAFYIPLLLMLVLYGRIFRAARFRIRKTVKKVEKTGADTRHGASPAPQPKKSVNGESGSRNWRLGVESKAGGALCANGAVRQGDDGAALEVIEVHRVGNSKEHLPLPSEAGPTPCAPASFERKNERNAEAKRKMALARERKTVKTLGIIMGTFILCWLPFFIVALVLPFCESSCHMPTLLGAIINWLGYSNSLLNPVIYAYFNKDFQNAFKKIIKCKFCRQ
In short: as §1

5-HT6 = target: T5, 5-HT6 (Homo sapiens, UniProt P50406)
T5 construct: NIMH PDSP
In short: as §1

M3 = M3 (Homo sapiens, UniProt P20309)
In short: as §1

[1] = quadruplicate, read-out: Mean±SD % inhibition
[2] = replicate 1, read-out: % Inhibition 1
[3] = replicate 2, read-out: % Inhibition 2
[4] = replicate 3, read-out: % Inhibition 3
[5] = replicate 4, read-out: % Inhibition 4

H4, sequence (Q9H3N8 whole entry): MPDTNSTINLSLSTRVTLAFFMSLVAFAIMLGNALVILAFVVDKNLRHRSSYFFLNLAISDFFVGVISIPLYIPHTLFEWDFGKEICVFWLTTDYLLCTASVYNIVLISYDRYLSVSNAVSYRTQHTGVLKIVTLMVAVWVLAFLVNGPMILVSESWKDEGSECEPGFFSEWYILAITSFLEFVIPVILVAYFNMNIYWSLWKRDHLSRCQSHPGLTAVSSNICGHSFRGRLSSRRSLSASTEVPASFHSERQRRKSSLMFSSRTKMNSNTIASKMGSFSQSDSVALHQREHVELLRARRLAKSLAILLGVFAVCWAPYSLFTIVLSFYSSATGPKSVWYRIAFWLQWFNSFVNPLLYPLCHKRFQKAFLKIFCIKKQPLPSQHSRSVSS
T3 sequence (P28223 whole entry, species assumed): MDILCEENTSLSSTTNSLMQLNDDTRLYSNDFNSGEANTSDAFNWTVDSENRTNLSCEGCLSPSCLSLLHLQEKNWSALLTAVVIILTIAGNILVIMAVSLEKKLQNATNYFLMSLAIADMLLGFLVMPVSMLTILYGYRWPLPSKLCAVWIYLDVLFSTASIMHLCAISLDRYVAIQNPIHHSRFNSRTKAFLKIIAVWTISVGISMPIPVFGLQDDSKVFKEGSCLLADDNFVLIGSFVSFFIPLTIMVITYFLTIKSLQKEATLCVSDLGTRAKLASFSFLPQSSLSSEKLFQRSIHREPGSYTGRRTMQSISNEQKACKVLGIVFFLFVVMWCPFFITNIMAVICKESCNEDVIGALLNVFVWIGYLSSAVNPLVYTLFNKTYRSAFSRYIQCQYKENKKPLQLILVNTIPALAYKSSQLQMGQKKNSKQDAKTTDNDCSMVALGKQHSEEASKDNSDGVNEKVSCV
T5 sequence (P50406 whole entry, species assumed): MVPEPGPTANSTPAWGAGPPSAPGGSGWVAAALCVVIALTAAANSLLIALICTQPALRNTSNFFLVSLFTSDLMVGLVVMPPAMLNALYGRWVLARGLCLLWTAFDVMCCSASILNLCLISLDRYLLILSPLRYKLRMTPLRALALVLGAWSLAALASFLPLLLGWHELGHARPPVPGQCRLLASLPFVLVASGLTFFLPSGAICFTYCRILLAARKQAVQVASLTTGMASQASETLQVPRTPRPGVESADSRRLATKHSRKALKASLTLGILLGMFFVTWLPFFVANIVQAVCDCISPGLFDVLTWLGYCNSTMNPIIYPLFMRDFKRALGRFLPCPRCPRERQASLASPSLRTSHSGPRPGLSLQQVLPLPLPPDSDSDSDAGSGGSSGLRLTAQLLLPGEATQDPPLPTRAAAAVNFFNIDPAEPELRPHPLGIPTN
M3, sequence (P20309 whole entry): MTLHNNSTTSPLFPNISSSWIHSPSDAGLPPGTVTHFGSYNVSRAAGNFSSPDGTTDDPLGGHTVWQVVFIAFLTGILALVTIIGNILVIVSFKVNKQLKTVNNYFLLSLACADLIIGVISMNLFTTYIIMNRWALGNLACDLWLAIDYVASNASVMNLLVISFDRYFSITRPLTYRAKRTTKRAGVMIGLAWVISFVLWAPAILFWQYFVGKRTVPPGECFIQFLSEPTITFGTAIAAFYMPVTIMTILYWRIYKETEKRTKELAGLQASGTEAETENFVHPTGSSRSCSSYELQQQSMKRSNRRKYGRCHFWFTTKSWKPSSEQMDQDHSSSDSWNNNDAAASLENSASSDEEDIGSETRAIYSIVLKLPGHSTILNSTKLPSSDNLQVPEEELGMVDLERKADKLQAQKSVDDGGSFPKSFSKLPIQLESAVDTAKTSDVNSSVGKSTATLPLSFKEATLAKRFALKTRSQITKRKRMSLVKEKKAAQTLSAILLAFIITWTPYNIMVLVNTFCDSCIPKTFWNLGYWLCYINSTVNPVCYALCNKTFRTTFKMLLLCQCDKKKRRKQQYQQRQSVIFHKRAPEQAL

For `COc1ccnc(N2CCC3(CCCN(Cc4cn(C)c5ccccc45)C3=O)CC2)n1` [CW24], the inhibition at 10 µM (Alpha1B; [1]) was -20.7 ± 12.8%, the inhibition at 10 µM (Alpha1B; [2]) was -6.11% and the inhibition at 10 µM (Alpha1B; [3]) was -16.3%. The inhibition at 10 µM (Alpha1B; [4]) was -36.7%, the inhibition at 10 µM (Alpha1B; [5]) was -23.6% and the inhibition at 10 µM (H4; [1]) was 3.44 ± 8.21%. The inhibition at 10 µM (H4; [2]) was -8.25%, the inhibition at 10 µM (H4; [3]) was 9.91% and the inhibition at 10 µM (H4; [4]) was 8.32%. It also gave an inhibition at 10 µM (H4; [5]) of 3.76%, an inhibition at 10 µM (D4; [1]) of 67.2 ± 5.6% and an inhibition at 10 µM (D4; [2]) of 73.2%. It also gave an inhibition at 10 µM (D4; [3]) of 70%, an inhibition at 10 µM (D4; [4]) of 60.3% and an inhibition at 10 µM (D4; [5]) of 65.3%. For the same compound, the inhibition at 10 µM (5-HT2A; [1]) was 12.3 ± 15.4%, the inhibition at 10 µM (5-HT2A; [2]) was 25.7% and the inhibition at 10 µM (5-HT2A; [3]) was 20.1%. For the same compound, the inhibition at 10 µM (5-HT2A; [4]) was 12.8%, the inhibition at 10 µM (5-HT2A; [5]) was -9.45% and the inhibition at 10 µM (5-HT1A; [1]) was -10.2 ± 8.4%. It also gave an inhibition at 10 µM (5-HT1A; [2]) of -4.55%, an inhibition at 10 µM (5-HT1A; [3]) of -4.08% and an inhibition at 10 µM (5-HT1A; [4]) of -22.1%. The inhibition at 10 µM (5-HT1A; [5]) was -9.84%, the inhibition at 10 µM (5-HT6; [1]) was 5.73 ± 17.3% and the inhibition at 10 µM (5-HT6; [2]) was 17.7%. For the same compound, the inhibition at 10 µM (5-HT6; [3]) was 23.2%, the inhibition at 10 µM (5-HT6; [4]) was -12.3% and the inhibition at 10 µM (5-HT6; [5]) was -5.73%. For the same compound, the inhibition at 10 µM (M3; [1]) was -9.56 ± 5.94%, the inhibition at 10 µM (M3; [2]) was -5.69% and the inhibition at 10 µM (M3; [3]) was -3.65%. For the same compound, the inhibition at 10 µM (M3; [4]) was -12.4% and the inhibition at 10 µM (M3; [5]) was -16.5%.
